The values below come from PMC8876959, “Comparative Evaluation of Radiochemical and Biological Properties of ^131I- and [^99mTc]Tc(CO)3-Labeled RGD Analogues Planned to Interact with the αvβ3 Integrin Expressed in Glioblastoma” (Pharmaceuticals, 2022).

Values joined by “and” are separate entries in the source; they are usually repeats but may differ in a detail not shown here. Equal values may be shown once.

One data set concerns serum proteins. Put plainly: Serum protein binding (TCA precipitation). In kind it is in vitro ADME. The settings on record: 25 µL radiopeptide in 175 µL serum, 37 °C, 1 h; 10% TCA precipitation; gamma counter; n = 6. The procedure:
Radiopeptides (25 μL) were added to 175 µL of serum (n = 6) and incubated at 37 °C for 1 h. After, 1 mL of 10% trichloroacetic acid (TCA) was added for the precipitation of proteins. The mixture was vortexed for 1 min and centrifuged at 1677× g for 10 min. This process was repeated three times. Both the supernatant’s and pellet’s radioactivity were measured in an automatic Wizard 3 2480 gamma counter (Perkin Elmer; Norwalk, CT, USA).

Data set [1] relates to normal rat brain homogenates (control). Put plainly: Binding and internalization in brain homogenate of normal rats. The settings on record: 37 °C, n = 7. The procedure:
An aliquot containing 2 × 10^6 C6 cells in supplemented DMEM-F12 culture medium (450 µL) was added to a vial and incubated with 10 nmol of the radiolabeled peptide at 37 °C with gentle agitation. The studies were evaluated at 1, 4 and 24 h (n = 7 for each time point). Then, the vials were centrifuged (604× g for 5 min). The radioactivities of the pellet and supernatant were separately evaluated using an automatic Wizard 3 2480 gamma counter (Perkin Elmer; Norwalk, CT, USA). The percentage of the bound fraction was calculated by Equation (1). (1) % bound fraction=Pellet radioactivity (cpm)/Pellet radioactivity (cpm)+supernatant radioactivity (cpm)×100
In the sequence, a second radioactivity determination was performed. For that, pellets were resuspended using 0.5 mL of acid buffer (0.2 M acetic acid in 0.5 M NaCl solution; pH 2.8) and maintained at room temperature for 5 min to remove the radiolabeled molecule attached to the cell membrane surface. Then, the vials were centrifuged (1677× g for 5 min). The pellet and supernatant were separated and their radioactivities were measured using the above-mentioned automatic gamma counter. The percentage of the internalized fraction of radiopeptides was estimated based on the ratio between the activity contained in the precipitate and the supernatant and calculated by Equation (2):(2) % internalized fraction=Pellet radioactivity (cpm)/Pellet radioactivity (cpm)+supernatant radioactivity (cpm)×100
Brain homogenates were prepared at the concentration of ~10 mg of wet tissue in 1000 µL of PBS (pH 7.4). Normal brain tissue (control) and tumor-bearing brain tissue (model) were used. A 25 µL aliquot (1.2 MBq/nmol) of each radiopeptide was added to 200 µL of freshly prepared homogenates (n = 7). The homogenates containing the radiolabeled peptides were incubated at 37 °C for 1, 4 and 24 h. Binding and internalization fractions were determined as described in Section 3.11.

Setting [2] is: normal rat brain homogenate, 24 h.

[^99mTc]Tc(CO)3-GRGDHV: the “Serum protein binding (SPB)” value with serum proteins is ~50% and 49.97 ± 0.01%. For the same substance, the Bound fraction in data set [1] (normal rat brain homogenate (~10 mg/1000 µL PBS pH 7.4), 1 h) is given as ~ 50%; in data set [1] (setting [2]), ~ 65%. The Internalized fraction in data set [1] (normal rat brain homogenate, 1 h) is recorded as ~ 63%; in data set [1] (setting [2]), ~ 87%.
